This is an account of results in patent US20040259823A1, “Cationic amphiphiles as transfection vehicles” (priority 2001, published 2004).

Assay type in all cases: cell-based
For data set [1], the system named is COS-7 and HepG2 cells. In words: Toxicity towards the cells by protein determination versus control wells. Particulars: protein determination compared with the reference value of control wells. The protocol:
(§1) Transfections were carried out following standard protocols as is described in EP 0755924. In numerous publications variations of transfection protocols are given. A person acquainted with the field of non-viral transfections, in particular transfections using cationic amphiphiles will be able to use the cationic amphiphiles of the invention in transfection methods known per se. In standard experiments COS-7 cells are transfected with plasmid DNA containing the β-galactosidase reporter gene. Upon successful transfection the cell produces the enzyme β-galactosidase whose activity can be easily measured. Other plasmids comprising alternative reporter genes such as the gene encoding Green Fluorescent Protein or Chloroamphenicol Acetyl Transferase are suited as well. For analyzing stable transfection a plasmid containing the neomycin resistance gene can be used. Toxicity of the cationic amphiphiles towards the cells can be monitored qualitatively and quantitatively by visual inspection of the cells and by a protein determination. Control wells underwent identical steps except that no cationic amphiphile was added.

In data set [2] the test system is COS-7 and HepG2 cells. In words: Transfection with pCMV GFP plasmid, % GFP positive cells by FACS (cell line not given). The following applies: cell line and helper lipid not given. The protocol: as §1, with “determination.” for “determination. Control wells underwent identical steps except that no cationic amphiphile was added.”
A solution of cationic amphiphile in a 50/50 molar ratio with DOPE, DOPC or cholesterol in chloroform was dried under a stream of nitrogen. The residual solvent was removed under vacuum. The lipid film was hydrated in water at room temperature and sonicated to clarity in a bath sonicator immediately before use.
A 4.7 kb pair plasmid containing the GFP reporter gene under control of the cytomegalovirus immediate early gene promoter/enhancer (pCMV GFP).DNA was isolated from E. coli using a Qiagen Plasmid Kit (QIAGEN Inc, USA). The plasmid concentration was determined by measuring the absoption at 260 nm using the relation 1.0 OD=50 μg/ml. The OD260/OD280 value was 1.95.
(§2) COS-7 and HepG2 cells were cultured in Dulbecco's Modified Eagle Medium (DMEM Gibco The Netherlands) containing 7% of fetal calf serum, 2 mM L-Glutamine, 100 units/ml of penicilin and […] of streptomycin at 37° C. in CO2/air (1:19).
(§3) Cells (1×10^5 cells/well) were seeded in 12-well plates and were allowed to grow overnight.
(§4) The complex of cationic amphiphile/helper lipid (1:1) with pCMV GFP was prepared at the charge ratio 2.5:1 (15 nmol lipid and 1 μg DNA), in 100 μl 10 mM HEPES (pH=7.4, 150 mM NaCl). After 10-15 min incubation at room temperature, the resulting complex was diluted in 1 ml medium (DMEM) and 0.5 ml of the mixture was added to the cells and incubated for 4 h at 37° C. The transfection efficiency expressed as a percentage of GFP positive cells was measured by FACS (Fluorescence Activated Cell Soorting) 48 hours after the transfection.
(§5) Control wells underwent identical steps except that no cationic amphiphile was added.
In general terms: In flow cytometry, cells or beads pass a laser one at a time.

For data set [3], the system named is COS-7 and HepG2 cells. In words: Cell survival after transfection (cell line not given). Particulars: cell line and helper lipid not given. As for the experimental part:
as §1, with “determination.” for “determination. Control wells underwent identical steps except that no cationic amphiphile was added.”
as §2, §3, §4, §5

Turning to `CCCCCCCC/C=C\CCCCCCCCCc1cc[n+](CCCCCCCC/C=C\CCCCCCCC)cc1.[Cl-]` [SF6, 1-(9′-cis-octadecenyl)-4-(10″-cis-nonadecenyl) pyridinium Chloride], the “toxicity towards the cells” value in data set [1] is on record as “marginal toxicity”. The “% TE” value is listed as 14.44% in data set [2] (Table 1); 11.48% in data set [2] (Table 2); 30.91% in data set [2] (Table 7); 9.96% in data set [2] (Table 8); 3.92% in data set [2] (Table 9); 9.14% in data set [2] (Table 10). Moreover, the “% surv cells” value in data set [3] (Table 1) is on record as 75.3%; in data set [3] (Table 2), 47.3%; in data set [3] (Table 7) it was 84.06%; in data set [3] (Table 8) it was 57.21%; in data set [3] (Table 9), 70.01%; in data set [3] (Table 10) it was 61.57%.
